# Reference: US10064885B2, “Metabolic gene, enzyme, and flux targets for cancer therapy” (Massachusetts Institute of Technology, priority 2010, dated 2018)
# Tests used:
# Assay type in all cases: cell-based, human
# A549 cells [1] = assay: 13C Metabolic Flux Analysis (MFA) of A549 cells expressing IDH1-targeting shRNAs, [U-13C5]glutamine tracer
# Protocol: (§1) Cell Culture, Isotopic Labeling, and Hypoxia. All cell lines were cultured in Dulbecco's Modified Eagle Medium (DMEM; Mediatech) containing 10% fetal bovine serum (FBS; Invitrogen) and 100 U/ml penicillin/streptomycin (P/S; Mediatech) unless otherwise mentioned. Cell lines were obtained from ATCC unless otherwise noted. The VC3 glioma cell line was provided by Tim Lautenschlaeger (Ohio State University), MDA-MB-231 and HCT116 cell lines were provided by Ferdinando Chiaradonna (University of Milano-Bicocca), MRC5 cells were provided by Stephen Lippard (MIT), SN12C, ACHN, and 786-O cells were provided by Kevin Courtney and Lew Cantley (Harvard Medical School), and MCF10A cells were provided by Joan Brugge (Harvard Medical School), and Huh7 cells were provided by Mike Hemann (MIT). MCF10A cells were cultured in custom DMEM/F12 (Hyclone) containing 5% horse serum, 20 ng/ml EGF, 10 μg/ml insulin, 100 ng/ml cholera toxin, 0.5 mg/ml hydrocortisone, 100 U/ml penicillin/streptomycin, and labeled/unlabeled glucose and glutamine at 18 mM and 2.5 mM, respectively. PRC3, WT8, pTV, and pTR cell lines were subcloned from the 786-O cell line as previously described (42, 43). For isotopic labeling experiments, cells were cultured in 6 well plates in glucose- and glutamine-free DMEM (Sigma) containing 10% dialyzed FBS (Invitrogen), 100 U/ml P/S, naturally labeled glucose or glutamine, and the appropriate tracer, including [U-^13C5]glutamine (Isotec), [5-^13C]glutamine (C/D/N Isotopes), [1-^13C]glutamine, [U-^13C6]glucose, [1,2-^13C2]glucose (all from Cambridge Isotope Labs). Steady state labeling of organic and amino acids was accomplished by culturing subconfluent cells in tracer medium for 24 hours. Labeling of fatty acids for Isotopomer Spectral Analysis (USA) was conducted over 3-5 days of culture in an excess of tracer medium (3-4 ml/well in a 6 well plate) to prevent nutrient depletion. Hypoxic culture was conducted by feeding a custom mixture of 1% O2, 5% CO2, and 94% N2 to a standard incubator controlled at 5% CO2. HEPES (Mediatech) was added to the culture medium at 20 mM to maintain pH between normoxic and hypoxic cultures. The internal gas content was monitored using Fyrite gas analyzers (Bacharach) for CO2 and O2. O2 levels were confirmed at 1.5-2% during hypoxic culture.
# Stable cell cultures with decreased IDH1 and IDH2 expression were generated via lentiviral-mediated shRNA expression. pLKO.1 lentiviral vectors targeting IDH1 with shRNA sequences of […] TT (IDH1a; TRCN0000027298; SEQ ID NO:1) and […] TT (IDH1b; TRCN0000027289; SEQ ID NO:2), IDH2 with shRNA sequence […] TT (TRCN0000027225; SEQ ID NO:3). For controls, either non-targeting control shRNA (SHC002; Sigma) or pLKO.1 scrambled control vector (44)(Addgene) were used. pLKO.1 vector targeting ARNT with shRNA sequence […] TT (TRCN0000003819; SEQ ID NO:4) was obtained from Open Biosystems.
# HEK293T cells were co-transfected with pLKO.1 vectors and packaging plasmids to produce lentivirus. Filtered supernatants were used for infection, and cells were selected with puromycin (2 μg/ml) for at least two passages before initiating tracer and flux experiments.
# Metabolite Extraction and Gas Chromatography/Mass Spectrometry (GC/MS) Analysis. At the conclusion of culture, cells were rinsed with 1 ml ice cold PBS and quenched with 0.4 ml ice cold methanol. An equal volume of water was added, and cells were collected in tubes by scraping with a pipette. One volume of ice cold chloroform was added to each tube, and the extracts were vortexed at 4° C. for 30 minutes. Samples were centrifuged at 14,000 g for 5 minutes at room temperature. For analysis of polar metabolites, the aqueous phase was transferred to a new tube for evaporation under airflow. For ISA experiments, the non-polar fraction was collected and evaporated under airflow. In some ISA experiments, cells were trypsinized, counted, and pelleted prior to lipid extraction as described above. […]
# A549 cells [2] = assay: Reductive glutamine metabolism by isotopic labeling and GC/MS in A549 cells expressing shRNAs; details: [U-13C5]glutamine, aspartate, malate, fumarate
# Protocol: as §1, with “Labeling of fatty acids for Isotopomer Spectral Analysis (USA) was conducted over 3-5 days of culture in an excess of tracer medium (3-4 ml/well in a 6 well plate) to prevent nutrient depletion. Hypoxic culture was conducted by feeding a custom mixture of 1% O2, 5% CO2, and 94% N2 to a standard incubator controlled at 5% CO2. HEPES (Mediatech) was added to the culture medium at 20 mM to maintain pH between normoxic and hypoxic cultures.” left out, “O2 levels were confirmed at 1.5-2% during hypoxic culture.” left out
# (§2) Metabolite Extraction and Gas Chromatography/Mass Spectrometry (GC/MS) Analysis. […] In some ISA experiments, cells were trypsinized, counted, and pelleted prior to lipid extraction as described above. […]
# HCT116 colon carcinoma = assay: Reductive carboxylation by [1-13C]glutamine labeling and GC/MS in HCT116 cells expressing shRNAs
# Protocol: as §1, with “Labeling of fatty acids for Isotopomer Spectral Analysis (USA) was conducted over 3-5 days of culture in an excess of tracer medium (3-4 ml/well in a 6 well plate) to prevent nutrient depletion. Hypoxic culture was conducted by feeding a custom mixture of 1% O2, 5% CO2, and 94% N2 to a standard incubator controlled at 5% CO2. HEPES (Mediatech) was added to the culture medium at 20 mM to maintain pH between normoxic and hypoxic cultures.” left out, “O2 levels were confirmed at 1.5-2% during hypoxic culture.” left out
# as §2
# [3] = system: MDA-MB-231 breast carcinoma; assay: Reductive carboxylation by [1-13C]glutamine labeling and GC/MS in MDA-MB-231 cells expressing shRNAs
# Protocol: as §1, with “Labeling of fatty acids for Isotopomer Spectral Analysis (USA) was conducted over 3-5 days of culture in an excess of tracer medium (3-4 ml/well in a 6 well plate) to prevent nutrient depletion. Hypoxic culture was conducted by feeding a custom mixture of 1% O2, 5% CO2, and 94% N2 to a standard incubator controlled at 5% CO2. HEPES (Mediatech) was added to the culture medium at 20 mM to maintain pH between normoxic and hypoxic cultures.” left out, “O2 levels were confirmed at 1.5-2% during hypoxic culture.” left out
# as §2
# 143B osteosarcoma = assay: Reductive carboxylation by [1-13C]glutamine labeling and GC/MS in 143B cells expressing shRNAs
# Protocol: Cell Culture, Isotopic Labeling, and Hypoxia. All cell lines were cultured in Dulbecco's Modified Eagle Medium (DMEM; Mediatech) containing 10% fetal bovine serum (FBS; Invitrogen) and 100 U/ml penicillin/streptomycin (P/S; Mediatech) unless otherwise mentioned. Cell lines were obtained from ATCC unless otherwise noted. The VC3 glioma cell line was provided by Tim Lautenschlaeger (Ohio State University), MDA-MB-231 and HCT116 cell lines were provided by Ferdinando Chiaradonna (University of Milano-Bicocca), MRC5 cells were provided by Stephen Lippard (MIT), SN12C, ACHN, and 786-O cells were provided by Kevin Courtney and Lew Cantley (Harvard Medical School), and MCF10A cells were provided by Joan Brugge (Harvard Medical School), and Huh7 cells were provided by Mike Hemann (MIT). MCF10A cells were cultured in custom DMEM/F12 (Hyclone) containing 5% horse serum, 20 ng/ml EGF, 10 μg/ml insulin, 100 ng/ml cholera toxin, 0.5 mg/ml hydrocortisone, 100 U/ml penicillin/streptomycin, and labeled/unlabeled glucose and glutamine at 18 mM and 2.5 mM, respectively. […] The internal gas content was monitored using Fyrite gas analyzers (Bacharach) for CO2 and O2. […]
# as §2
# [4] = system: Hypoxia response element- (HRE-) driven reporter; assay: Hypoxia response element (HRE)-driven reporter in HCT116 cells expressing IDH1-targeting shRNAs; details: normal culture, hypoxia, or 1 mM DMOG, 18 hours
# Protocol: Luciferase Assays. Subconfluent cells in 6 well plates were co-transfected with 1 μg of a firefly luciferase vector and 50 ng Renilla luciferase vector (pRL-TK; Promega) using Fugene 6 reagent. The ODD-Luciferase and Luciferase vectors were obtained from Addgene and based off of the pcDNA3.1 vector (49). Hypoxia responsive element-luciferase (HRE-Luc) vectors were used as described (50). Approximately 24 hours after transfection, medium was changed and cells were placed under normoxia, hypoxia, or treated with 1 mM dimethyloxalylglycine (DMOG). After 18 hours of treatment, cells were lysed and luciferase activity was determined using the Dual Luciferase Reporter Assay system (Promega) according to the manufacturer's instructions.
# [5] = Anaplerotic reactions, exchange flux
# [6] = Anaplerotic reactions, net flux
# [7] = Pentose Phosphate Pathway, exchange flux
# [8] = Pentose Phosphate Pathway, net flux
sequence,measurement,setting,value
"CCGGGCTGCTTGCATTAAAGGTTTACTCGAGTAAACCTTTAATGCAAGCAGCTTT TT (CCGGGCTGCTTGCATTAAAGGTTTACTCGAGTAAACCTTTAATGCAAGCAGCTTTTT; expressed or natural sequence) [IDH1a, pLKO.1 lentiviral vector shRNA targeting IDH1]",Flux Pyr.m <−> Ala,"A549 cells [1]; Amino acids, exchange flux",0.00 fmol/cell*hr
same,Flux Gln −> Glu,"A549 cells [1]; Amino acids, net flux",22.97 fmol/cell*hr
same,Flux Gln.x −> Gln,"A549 cells [1]; Amino acids, net flux",23.47 fmol/cell*hr
same,Flux Glu −> Glu.x,"A549 cells [1]; Amino acids, net flux",18.56 fmol/cell*hr
same,Flux Pyr.m −> Ala,"A549 cells [1]; Amino acids, net flux",0.42 fmol/cell*hr
same,Flux Glu <−> Akg,A549 cells [1]; [5],499.30 fmol/cell*hr
same,Flux Mal <−> Pyr.m + CO2,A549 cells [1]; [5],0.00 fmol/cell*hr
same,Flux Oac <−> Asp,A549 cells [1]; [5],0.01 fmol/cell*hr
same,Flux Glu −> Akg,A549 cells [1]; [6],3.90 fmol/cell*hr
same,Flux Mal −> Pyr.m + CO2,A549 cells [1]; [6],5.44 fmol/cell*hr
same,Flux Oac −> Asp,A549 cells [1]; [6],0.61 fmol/cell*hr
same,Flux Pyr.m + CO2 −> Oac,A549 cells [1]; [6],2.14 fmol/cell*hr
same,Flux 0.6*Asp + 0.5*Glu + 0.42*Ala + 0.5*Gln −> Biomass,"A549 cells [1]; Biomass, net flux",1.01 fmol/cell*hr
same,Flux AcCoA.c −> Fatty acids,"A549 cells [1]; Biomass, net flux",10.65 fmol/cell*hr
same,Flux Cit −> AcCoA.c + Oac,"A549 cells [1]; Biomass, net flux",10.65 fmol/cell*hr
same,Flux P5P −> NTP,"A549 cells [1]; Biomass, net flux",0.50 fmol/cell*hr
same,Flux 0*Pyr.c −> Pyr.mnt,A549 cells [1]; Dilution/Mixing,1.00 fmol/cell*hr
same,Flux 0*Pyr.m −> Pyr.mnt,A549 cells [1]; Dilution/Mixing,0.00 fmol/cell*hr
same,Flux 0*Suc −> Suc.mnt,A549 cells [1]; Dilution/Mixing,0.24 fmol/cell*hr
same,Flux Suc.d −> Suc.mnt,A549 cells [1]; Dilution/Mixing,0.76 fmol/cell*hr
same,Flux Pyr.c <−> Pyr.m,"A549 cells [1]; Dilution/Mixing, exchange flux",82.77 fmol/cell*hr
same,Flux Pyr.c −> Pyr.m,"A549 cells [1]; Dilution/Mixing, net flux",11.79 fmol/cell*hr
same,Flux DHAP <−> GAP,"A549 cells [1]; Glycolysis, exchange flux",566.90 fmol/cell*hr
same,Flux G6P <−> F6P,"A549 cells [1]; Glycolysis, exchange flux",3.2E+04 fmol/cell*hr
same,Flux GAP <−> 3PG,"A549 cells [1]; Glycolysis, exchange flux",1.7E+08 fmol/cell*hr
same,Flux Pyr.c <−> Lac,"A549 cells [1]; Glycolysis, exchange flux",706.50 fmol/cell*hr
same,Flux 3PG −> Pyr.c,"A549 cells [1]; Glycolysis, net flux",186.40 fmol/cell*hr
same,Flux DHAP −> GAP,"A549 cells [1]; Glycolysis, net flux",91.96 fmol/cell*hr
same,Flux F6P −> DHAP + GAP,"A549 cells [1]; Glycolysis, net flux",91.96 fmol/cell*hr
same,Flux G6P −> F6P,"A549 cells [1]; Glycolysis, net flux",86.95 fmol/cell*hr
same,Flux GAP −> 3PG,"A549 cells [1]; Glycolysis, net flux",186.40 fmol/cell*hr
same,Flux Glc.x −> G6P,"A549 cells [1]; Glycolysis, net flux",94.96 fmol/cell*hr
same,Flux Lac −> Lac.x,"A549 cells [1]; Glycolysis, net flux",174.60 fmol/cell*hr
same,Flux Pyr.c −> Lac,"A549 cells [1]; Glycolysis, net flux",174.60 fmol/cell*hr
same,Flux P5P + E4P <−> F6P + GAP,A549 cells [1]; [7],1.76 fmol/cell*hr
same,Flux P5P + P5P <−> S7P + GAP,A549 cells [1]; [7],3.0E+04 fmol/cell*hr
same,Flux S7P + GAP <−> F6P + E4P,A549 cells [1]; [7],1.9E+05 fmol/cell*hr
same,Flux G6P −> P5P + CO2,A549 cells [1]; [8],8.01 fmol/cell*hr
same,Flux P5P + E4P −> F6P + GAP,A549 cells [1]; [8],2.50 fmol/cell*hr
same,Flux P5P + P5P −> S7P + GAP,A549 cells [1]; [8],2.50 fmol/cell*hr
same,Flux S7P + GAP −> F6P + E4P,A549 cells [1]; [8],2.50 fmol/cell*hr
same,Flux Fum <−> Mal,"A549 cells [1]; TCA Cycle, exchange flux",1.1E+06 fmol/cell*hr
same,Flux Mal <−> Oac,"A549 cells [1]; TCA Cycle, exchange flux",98.66 fmol/cell*hr
same,Flux Suc <−> Fum,"A549 cells [1]; TCA Cycle, exchange flux",0.00 fmol/cell*hr
same,Flux Cit <−> Akg + CO2,"A549 cells [1]; TCA Cycle, exchange flux (reductive IDH flux)",1.88 fmol/cell*hr
same,Flux AcCoA.m + Oac −> Cit,"A549 cells [1]; TCA Cycle, net flux",14.66 fmol/cell*hr
same,Flux Akg −> Suc + CO2,"A549 cells [1]; TCA Cycle, net flux",7.91 fmol/cell*hr
same,Flux Fum −> Mal,"A549 cells [1]; TCA Cycle, net flux",7.91 fmol/cell*hr
same,Flux Mal −> Oac,"A549 cells [1]; TCA Cycle, net flux",2.48 fmol/cell*hr
same,Flux Pyr.m −> AcCoA.m + CO2,"A549 cells [1]; TCA Cycle, net flux",14.66 fmol/cell*hr
same,Flux Suc −> Fum,"A549 cells [1]; TCA Cycle, net flux",7.91 fmol/cell*hr
same,Flux Cit −> Akg + CO2,"A549 cells [1]; TCA Cycle, net flux (IDH)",4.01 fmol/cell*hr
same,M3 mass isotopomers derived from [U-13C5]glutamine (reductive carboxylation),A549 cells [2],decrease in reductive carboxylation
same,reductive carboxylation flux (M1 label from [1-13C]glutamine),HCT116 colon carcinoma,reduces reductive carboxylation flux
same,reductive carboxylation flux (M1 label from [1-13C]glutamine),[3],reduces reductive carboxylation flux
same,reductive carboxylation flux,143B osteosarcoma,reduces reductive carboxylation flux
same,HRE-driven reporter levels (hypoxia signaling),[4],does not increase hypoxia signaling and stabilization
